Legend:
AChE = AChE (Electrophorus electricus, UniProt O42275); assay: Enzyme kinetics of AChE inhibition; type: biochemical; settings: for Vmax (μmol/min)^−^1: Vmax of AChE, not apparent
AChE EC 3.1.1.7 = AChE EC 3.1.1.7 (Electrophorus electricus, UniProt O42275); assay: biochemical
human neutrophils = assay: Cytotoxicity: human neutrophil viability assay; type: cell-based; settings: 200 μg/mL
[1] = Cytotoxicity: human neutrophil viability assay; type: cell-based; settings: human
rabbit jejunum [2] = settings: high K+ (80 mM)-contracted isolated rabbit jejunum; Mean ± SEM, n = 3
rabbit jejunum [3] = assay: Spasmolytic activity on spontaneous contraction of isolated rabbit jejunum; settings: spontaneously contracting isolated rabbit jejunum; Mean ± SEM, n = 3

Sequence of AChE (O42275 24-633): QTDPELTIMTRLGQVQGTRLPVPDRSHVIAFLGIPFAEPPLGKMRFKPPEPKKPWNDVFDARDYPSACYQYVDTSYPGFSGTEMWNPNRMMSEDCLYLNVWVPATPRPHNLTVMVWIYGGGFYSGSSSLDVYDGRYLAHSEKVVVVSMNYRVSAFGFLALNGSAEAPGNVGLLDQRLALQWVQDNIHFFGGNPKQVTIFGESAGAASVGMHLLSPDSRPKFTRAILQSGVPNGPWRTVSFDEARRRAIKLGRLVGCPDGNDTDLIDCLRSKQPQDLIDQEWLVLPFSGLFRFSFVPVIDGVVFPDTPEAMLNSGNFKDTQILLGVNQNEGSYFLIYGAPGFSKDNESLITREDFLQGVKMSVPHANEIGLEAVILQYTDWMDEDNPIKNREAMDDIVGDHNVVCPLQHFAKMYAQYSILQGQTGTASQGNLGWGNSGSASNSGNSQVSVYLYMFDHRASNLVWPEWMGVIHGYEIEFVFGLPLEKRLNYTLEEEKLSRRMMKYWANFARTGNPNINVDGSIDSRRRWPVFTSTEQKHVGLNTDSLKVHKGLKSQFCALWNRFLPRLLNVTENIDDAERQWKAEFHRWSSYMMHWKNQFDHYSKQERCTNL
Sequence of AChE EC 3.1.1.7 (O42275 24-633): as above

## CCSc1nc2ccccc2n1Cc1nnc(-c2ccc(F)cc2)o1 [Compound 15, 2-((2-(Ethylthio)-1H-benzo[d]imidazole-1-yl)methyl)-5-(4-fluorophenyl)-1,3,4-oxadiazole]
AChE
  Ki: 53.3 ± 1.4 µM
  type of inhibition: noncompetitive
  Vmax (μmol/min)^−^1: 5.0 (μmol/min)^−^1
AChE EC 3.1.1.7
  IC50: 130.5 ± 1.03 µM

## CCCCCCCc1nnc(Cn2c(SCC)nc3ccccc32)o1 [Compound 16, 2-((2-(Ethylthio)-1H-benzo[d]imidazole-1-yl)methyl)-5-heptyl-1,3,4-oxadiazole]
Human neutrophils
  toxicity in the neutrophil viability assay (in words): nontoxic
[1]
  viability at 30 min, 200 µg/ml: 96.1 ± 2.5%
AChE
  Ki: 18.3 ± 1.7 µM
  type of inhibition: noncompetitive
  Vmax (μmol/min)^−^1: 5.0 (μmol/min)^−^1
Rabbit jejunum [2]
  Effective dose (ED50), High K+: 0.22 ± 0.01 µg/mL
Rabbit jejunum [3]
  Effective dose (ED50), Spontaneous: 0.12 ± 0.00 µg/mL
AChE EC 3.1.1.7
  IC50: 41.9 ± 0.67 µM

## CCSc1nc2ccccc2n1Cc1nnc(-c2ccco2)o1 [Compound 17, 2-((2-(Ethylthio)-1H-benzo[d]imidazole-1-yl)methyl)-5-(furan-2-yl)-1,3,4-oxadiazole]
Human neutrophils
  toxicity in the neutrophil viability assay (in words): nontoxic
[1]
  viability at 30 min, 200 µg/ml: 100 ± 1%
AChE
  Ki: 24.3 ± 1.3 µM
  type of inhibition: noncompetitive
  Vmax (μmol/min)^−^1: 5.0 (μmol/min)^−^1
Rabbit jejunum [2]
  Effective dose (ED50), High K+: 0.26 ± 0.05 µg/mL
Rabbit jejunum [3]
  Effective dose (ED50), Spontaneous: 0.13 ± 0.07 µg/mL
AChE EC 3.1.1.7
  IC50: 69.7 ± 0.95 µM

## CCSc1nc2ccccc2n1Cc1nnc(-c2cccc(OC)c2O)o1 [Compound 18, 2-(5-((2-(Ethylthio)-1H-benzo[d]imidazole-1-yl)methyl)-1,3,4-oxadiazol-2-yl)-6-methoxyphenol]
AChE
  Ki: 98.77 ± 0.7 µM
  type of inhibition: noncompetitive
  Vmax (μmol/min)^−^1: 5.0 (μmol/min)^−^1
AChE EC 3.1.1.7
  IC50: 248.8 ± 1.02 µM

## CCOc1cccc(-c2nnc(Cn3c(SCC)nc4ccccc43)o2)c1O [Compound 19, 2-Ethoxy-6-(5-((2-(ethylthio)-1H-benzo[d]imidazole-1-yl)methyl)-1,3,4-oxadiazol-2-yl)phenol]
AChE
  Ki: 93.3 ± 1.5 µM
  type of inhibition: noncompetitive
  Vmax (μmol/min)^−^1: 5.0 (μmol/min)^−^1
AChE EC 3.1.1.7
  IC50: 223.5 ± 0.96 µM

## CCSc1nc2ccccc2n1Cc1nnc(-c2ccc(OC)cc2)o1 [Compound 20, 2-((2-(Ethylthio)-1H-benzo[d]imidazole-1-yl)methyl)-5-(4-methoxyphenyl)-1,3,4-oxadiazole]
AChE
  Ki: 147 ± 1.9 µM
  type of inhibition: noncompetitive
  Vmax (μmol/min)^−^1: 5.0 (μmol/min)^−^1
AChE EC 3.1.1.7
  IC50: 380.1 ± 0.87 µM

## CCSc1nc2ccccc2n1Cc1nnc(-c2ccccc2OC)o1 [Compound 21, 2-((2-(Ethylthio)-1H-benzo[d]imidazole-1-yl)methyl)-5-(2-methoxyphenyl)-1,3,4-oxadiazole]
AChE
  Ki: 112 ± 1.3 µM
  type of inhibition: noncompetitive
  Vmax (μmol/min)^−^1: 5.0 (μmol/min)^−^1
AChE EC 3.1.1.7
  IC50: 291.9 ± 1.52 µM

## CCSc1nc2ccccc2n1Cc1nnc(-c2ccc(C)o2)o1 [Compound 22, 2-((2-(Ethylthio)-1H-benzo[d]imidazole-1-yl)methyl)-5-(5-methylfuran-2-yl)-1,3,4-oxadiazole]
AChE
  Ki: 32.1 ± 1.4 µM
  type of inhibition: noncompetitive
  Vmax (μmol/min)^−^1: 5.0 (μmol/min)^−^1
AChE EC 3.1.1.7
  IC50: 97.94 ± 0.79 µM

## CCSc1nc2ccccc2n1Cc1nnc(-c2ccccc2Cl)o1 [Compound 23, 2-(2-Chlorophenyl)-5-((2-(ethylthio)-1H-benzo[d]imidazole-1-yl)methyl)-1,3,4-oxadiazole]
AChE
  Ki: 45.1 ± 0.9 µM
  type of inhibition: noncompetitive
  Vmax (μmol/min)^−^1: 5.0 (μmol/min)^−^1
AChE EC 3.1.1.7
  IC50: 118 ± 1.41 µM

## CCSc1nc2ccccc2n1Cc1nnc(-c2ccc(OC)c(OC)c2)o1 [Compound 24, 2-(3,4-Dimethoxyphenyl)-5-((2-(ethylthio)-1H-benzo[d]imidazole-1-yl)methyl)-1,3,4-oxadiazole]
AChE
  Ki: 284.2 ± 1.2 µM
  type of inhibition: noncompetitive
  Vmax (μmol/min)^−^1: 5.0 (μmol/min)^−^1
AChE EC 3.1.1.7
  IC50: 692 ± 0.99 µM

## CCSc1nc2ccccc2n1Cc1nnc(-c2ccc(Cl)cc2)o1 [Compound 25, 2-(4-Chlorophenyl)-5-((2-(ethylthio)-1H-benzo[d]imidazole-1-yl)methyl)-1,3,4-oxadiazole]
AChE
  Ki: 83.21 ± 0.6 µM
  type of inhibition: noncompetitive
  Vmax (μmol/min)^−^1: 5.0 (μmol/min)^−^1
AChE EC 3.1.1.7
  IC50: 208.3 ± 1.39 µM

## CCSc1nc2ccccc2n1Cc1nnc(-c2ccc(O)cc2)o1 [Compound 26, 4-(5-((2-(Ethylthio)-1H-benzo[d]imidazole-1-yl)methyl)-1,3,4-oxadiazol-2-yl)phenol]
AChE
  Ki: 30.5 ± 1.9 µM
  type of inhibition: noncompetitive
  Vmax (μmol/min)^−^1: 5.0 (μmol/min)^−^1
AChE EC 3.1.1.7
  IC50: 93.2 ± 0.96 µM

## CCSc1nc2ccccc2n1Cc1nnc(-c2cc(OC)c(OC)c(OC)c2)o1 [Compound 27, 2-((2-(Ethylthio)-1H-benzo[d]imidazole-1-yl)methyl)-5-(3,4,5-trimethoxyphenyl)-1,3,4-oxadiazole]
AChE
  Ki: 775.02 ± 0.5 µM
  type of inhibition: noncompetitive
  Vmax (μmol/min)^−^1: 5.0 (μmol/min)^−^1
AChE EC 3.1.1.7
  IC50: 1580.2 ± 0.76 µM

## CCSc1nc2ccccc2n1Cc1nnc(-c2ccc([N+](=O)[O-])cc2)o1 [Compound 28, 2-((2-(Ethylthio)-1H-benzo[d]imidazole-1-yl)methyl)-5-(4-nitrophenyl)-1,3,4-oxadiazole]
AChE
  Ki: 289.2 ± 0.8 µM
  type of inhibition: noncompetitive
  Vmax (μmol/min)^−^1: 5.0 (μmol/min)^−^1
AChE EC 3.1.1.7
  IC50: 750.9 ± 1.19 µM

## CCSc1nc2ccccc2n1Cc1nnc(-c2ccc(F)c(OC)c2)o1 [Compound 29, 2-((2-(Ethylthio)-1H-benzo[d]imidazole-1-yl)methyl)-5-(4-fluoro-3-methoxyphenyl)-1,3,4-oxadiazole]
AChE
  Ki: 34.2 ± 0.9 µM
  type of inhibition: noncompetitive
  Vmax (μmol/min)^−^1: 5.0 (μmol/min)^−^1
AChE EC 3.1.1.7
  IC50: 84.2 ± 1.99 µM

## CCSc1nc2ccccc2n1Cc1nnc(-c2ccc(O)cc2O)o1 [Compound 30, 4-(5-((2-(Ethylthio)-1H-benzo[d]imidazole-1-yl)methyl)-1,3,4-oxadiazol-2-yl)benzene-1,3-diol]
AChE
  Ki: 456.71 ± 0.2 µM
  type of inhibition: noncompetitive
  Vmax (μmol/min)^−^1: 5.0 (μmol/min)^−^1
AChE EC 3.1.1.7
  IC50: 1190 ± 0.65 µM

## CCSc1nc2ccccc2n1Cc1nnc(-c2ccccc2O)o1 [Compound 31, 2-(5-((2-(Ethylthio)-1H-benzo[d]imidazole-1-yl)methyl)-1,3,4-oxadiazol-2-yl)phenol]
AChE
  Ki: 89.5 ± 1.5 µM
  type of inhibition: noncompetitive
  Vmax (μmol/min)^−^1: 5.0 (μmol/min)^−^1
AChE EC 3.1.1.7
  IC50: 248.5 ± 1.81 µM

## CCSc1nc2ccccc2n1Cc1nnc(-c2cccc(O)c2)o1 [Compound 32, 3-(5-((2-(Ethylthio)-1H-benzo[d]imidazole-1-yl)methyl)-1,3,4-oxadiazol-2-yl)phenol]
AChE
  Ki: 148.8 ± 0.2 µM
  type of inhibition: noncompetitive
  Vmax (μmol/min)^−^1: 5.0 (μmol/min)^−^1
AChE EC 3.1.1.7
  IC50: 400.7 ± 0.95 µM

## CCSc1nc2ccccc2n1Cc1nnc(-c2cccc(O)c2O)o1 [Compound 33, 3-(5-((2-(Ethylthio)-1H-benzo[d]imidazole-1-yl)methyl)-1,3,4-oxadiazol-2-yl)benzene-1,2-diol]
AChE
  Ki: 121 ± 0.5 µM
  type of inhibition: noncompetitive
  Vmax (μmol/min)^−^1: 5.0 (μmol/min)^−^1
AChE EC 3.1.1.7
  IC50: 320.6 ± 1.12 µM

## CCSc1nc2ccccc2n1Cc1nnc(-c2ccc(C)cc2)o1 [Compound 34, 2-((2-(Ethylthio)-1H-benzo[d]imidazole-1-yl)methyl)-5-(p-tolyl)-1,3,4-oxadiazole]
AChE
  Ki: 135.2 ± 0.5 µM
  type of inhibition: noncompetitive
  Vmax (μmol/min)^−^1: 5.0 (μmol/min)^−^1
AChE EC 3.1.1.7
  IC50: 377.4 ± 1.57 µM

## CCSc1nc2ccccc2n1Cc1nnc(-c2ccc(N(CC)CC)cc2)o1 [Compound 35, N,N-Diethyl-4-(5-((2-(ethylthio)-1H-benzo[d]imidazole-1-yl)methyl)-1,3,4-oxadiazol-2-yl)aniline]
AChE
  Ki: 101.3 ± 0.3 µM
  type of inhibition: noncompetitive
  Vmax (μmol/min)^−^1: 5.0 (μmol/min)^−^1
AChE EC 3.1.1.7
  IC50: 258.1 ± 1.02 µM

## COc1ccc2c3c1O[C@H]1C[C@@H](O)C=C[C@@]31CCN(C)C2 [Galanthamine, reference compound]
[1]
  viability at 30 min, 200 µg/ml: 96 ± 3.1%
